Experimental findings from patent EP0863769B1 (priority 1996, dated 1998) are described below.

Targets include X31 (A/Aichi/2/68); A/England/321/77; A/USSR/3/85; A/Sichuan/1/87; A/FW/1/50; A/USSR/90/77; A/Chile/1/83; B/USSR/100/83; B/Ann Arbor/1/86; B/Yamagata/11/88.
What all share (assay type): binding, Influenza Viren
What all share (settings): read-out: Affinität der Bindung an Virus, Kaff

Regarding “Poly-N-(2-Hydroxyethyl)-acrylamid mit 20% mol. 6SLN [6SLN-PAA]”, the Kd at X31 (A/Aichi/2/68) amounted to 3 µM; at A/England/321/77, 0.01 µM; at A/USSR/3/85, 0.1 µM; on A/Sichuan/1/87 it was 0.1 µM; on A/FW/1/50, 3 µM; at A/USSR/90/77, 0.3 µM. Besides, the Kd at A/Chile/1/83 is 6 µM; on B/USSR/100/83, 2 µM; at B/Ann Arbor/1/86, 3 µM; at B/Yamagata/11/88, 100 µM.
